# Several values for one entry are separate records, joined by “and”; a condition that tells them apart may be missing. Equal entries are not always repeated.
# B1: m1GRE5 (core printed only) (dsDNA)
# DNA 1: GGGTGAGCTATTCT
# DNA 2: AGAATAGCTCACCC
# B2: GRE5 (rat beta2AR gene, 35 bp oligonucleotide; core printed only) (dsDNA)
# DNA 1: GGGTGAGCTGTTCT
# DNA 2: AGAACAGCTCACCC
# Legend:
# β2AR [1] = biological target: T1, β2AR (Rattus norvegicus, UniProt P10608); details: SPOC1 cell membranes
# [2] = test system: β2AR-luciferase fusion genes; assay: Dexamethasone induction of β2AR-luciferase fusion genes transiently transfected into HepG2 cells; format: cell-based, human; details: pβ2AR(−643/+126); 0.1 μM dexamethasone, 8 hrs
# Method: HepG2 cells were transiently transfected with pRShGRα, pRSVβ-ga1, and either pβ2AR(−62/+126), pβ2AR(−152/+126), pβ2AR(−643/+126), pβ2AR(−1115/+126), pβ2AR(−2552/+126), pβ2AR(−3129/+126), or N-600 prATLUC. Transfected cells were incubated for 48 hours prior to addition of dexamethasone. Luciferase activity for each construct is expressed relative to that obtained with pβ2AR(−62/+126) in the absence of dexamethasone.
# Human HepG2 cells were transiently transfected with pRShGRα, pRSVβ-gal, and either pβ2AR(−3129/+126) or pβ2ARm1 (−3129/+126) as described in the specification. After transfection, the cells were incubated for 8 hours in either the absence or presence of 0.1 μM dexamethasone and cells were harvested. Values are means±S.E. of data from five independent experiments, each performed in triplicate. Asterisks indicate a significant (p<0.05) difference in luciferase activity from untreated and dexamethasone-treated cells as determined by Student's t-test.
# In order to determine whether the six putative GREs were functional, six β2AR-luciferase fusion gene deletion mutants were generated. […] To test the effect of dexamethasone on expression of the truncated β2AR-luciferase fusion genes, HepG2 cells transfected with each of the six fusion genes were incubated with either vehicle or 0.1 μM dexamethasone for 8 hrs, and luciferase activity was determined. […]
# GRE-pT81LUC fusion genes = assay: Dexamethasone induction of putative GREs fused to heterologous thymidine kinase promoter (pT81LUC) in HepG2 cells; format: cell-based, human; details: 0.1 μM dexamethasone
# Method: Plasmid constructs with the luciferase gene under the control of the tk promoter and various putative GREs (see FIG. 8 for sequences) were tested for luciferase activity after transfection into HepG2 cells that were co-transfected with pRShGRα. Transfected cells were incubated for 48 hours prior to addition of 0.1 μM dexamethasone.
# To further examine the functionality of the putative glucocorticoid response elements, fragments containing either GRE1, GRE5, or GRE2, GRE3 and GRE4 together were fused to pT81LUC, a luciferase expression plasmid driven by a minimal thymidine kinase promoter.^102 Sequences of the double stranded oligonucleotides containing GRE1, GRE5 and the MMTV GRE are shown in FIG. 10. […] Activity of GRE5-pT81LUC was induced 3.2-fold in the presence of 0.1 μM dexamethasone (FIG. 12), a value that was higher than that observed with any of the β2AR-luciferase fusion genes that included GRE5. Activity of GRE1-pT81LUC was not induced by 0.1 μM dexamethasone (FIG. 12). […] This level of fold-induction was similar to that obtained with MMTVsequence fused to pT81LUC.
# [3] = test system: β2AR-luciferase fusion genes; assay: Dexamethasone induction of β2AR-luciferase fusion genes in transiently transfected SPOC1 cells; format: cell-based, rat; details: pβ2AR(−3129/+126) in SPOC1 cells; 0.1 μM dexamethasone, 8 hrs
# β2AR [4] = biological target: T1, β2AR; assay: Cyclic AMP accumulation in SPOC1 cells (radioimmunoassay); format: cell-based; set-up: Because SPOC1 cells express a wild-type β2AR; endogenous in cells; host or cells: SPOC1 rat tracheal epithelial cells
# Method: Cyclic AMP accumulation was measured by radioimmunoassay. Significant differences were determined by one way ANOVA and Neuman-Keuls test.
# In order to determine if the recombinant β2AR expressed in clonal SPOC1 cells is able to functionally couple to adenylyl cyclase, cyclic AMP radioimmunoassays are performed using lysates. Mock-infected and clonal SPOC1 cells are plated at a density of 100,000 cells/well in 12-well dishes (Costar, Cambridge, Mass.). Cells are treated with adrenergic agonists and the phosphodiesterase inhibitor isobutylmethylxanthine (IBMX) for 10 min. Cellular cyclic AMP levels are determined by radioimmunoassay using the Biotrak CAMP Assay System (Amersham Life Science, Arlington Heights, Ill.). […] These experiments are repeated four times with four different SPOC1 cell platings.
# mucociliary clearance = details: inhaled, humans, controls and asthmatic individuals; cited from earlier work
# [5] = biological target: glucocorticoid receptor alpha (expressed from pRShGRalpha) (Homo sapiens) (UniProt P04150); assay: cell_activity; details: MMTV-pT81LUC in HepG2, 0.1 uM dexamethasone
# Sequence of glucocorticoid receptor alpha (expressed from pRShGRalpha) (Homo sapiens) (P04150 whole entry): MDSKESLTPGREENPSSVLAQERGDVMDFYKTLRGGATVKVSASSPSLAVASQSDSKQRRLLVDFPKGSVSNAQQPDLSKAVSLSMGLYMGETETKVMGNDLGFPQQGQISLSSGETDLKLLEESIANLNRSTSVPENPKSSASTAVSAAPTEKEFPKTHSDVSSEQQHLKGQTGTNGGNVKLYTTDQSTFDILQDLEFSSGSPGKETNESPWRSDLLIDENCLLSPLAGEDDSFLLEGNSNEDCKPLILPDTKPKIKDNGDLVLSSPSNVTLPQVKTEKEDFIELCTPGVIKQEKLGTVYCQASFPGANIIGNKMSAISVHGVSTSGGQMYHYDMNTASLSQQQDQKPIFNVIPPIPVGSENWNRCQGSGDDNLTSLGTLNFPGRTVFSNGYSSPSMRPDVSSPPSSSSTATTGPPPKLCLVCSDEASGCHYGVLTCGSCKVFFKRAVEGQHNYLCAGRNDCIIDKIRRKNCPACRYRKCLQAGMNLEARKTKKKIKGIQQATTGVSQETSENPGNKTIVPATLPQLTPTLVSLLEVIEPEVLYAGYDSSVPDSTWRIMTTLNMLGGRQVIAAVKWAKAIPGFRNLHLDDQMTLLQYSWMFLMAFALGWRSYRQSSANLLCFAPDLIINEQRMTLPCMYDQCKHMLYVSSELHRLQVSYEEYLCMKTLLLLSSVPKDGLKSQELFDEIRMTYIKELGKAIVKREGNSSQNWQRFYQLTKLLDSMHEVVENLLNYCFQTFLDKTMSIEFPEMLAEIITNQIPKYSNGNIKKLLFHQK
# [6] = biological target: glucocorticoid receptor (recombinant human GR) (Homo sapiens, UniProt P04150 P04150:1-777); assay: competition; unlabeled competitor did not compete with labeled GRE5 at up to 250-fold excess; details: chain copies: 2
# Sequence of glucocorticoid receptor (recombinant human GR) (P04150 whole entry, one chain of several): as the sequence (P04150 whole entry) above
# Method: To further characterize the ability of GRE₅ to bind glucocorticoid receptor in vitro, we performed electrophoretic mobility shift assays with recombinant human glucocorticoid receptor and serial dilutions of various competitor oligonucleotides was performed.
# [7] = biological target: glucocorticoid receptor alpha (expressed from pRShGRalpha) (Homo sapiens, UniProt P04150 P04150:1-777); assay: cell_activity; GRE5-pT81LUC in HepG2, 0.1 uM dexamethasone; details: tags: co-transfected expression plasmid pRShGRalpha in HepG2 cells; chain copies: 2; label: 32P
# Sequence of glucocorticoid receptor alpha (expressed from pRShGRalpha) (P04150 whole entry, the tested form may be a part, one chain of several): as the sequence (P04150 whole entry) above
# Excerpt: To further examine the functionality of the putative glucocorticoid response elements, fragments containing either GRE₁, GRE₅, or GRE₂, GRE₃ and GRE₄ together were fused to pT81LUC, a luciferase expression plasmid driven by a minimal thymidine kinase promoter.¹⁰² Sequences of the double stranded oligonucleotides containing GRE₁, GRE₅ and the MMTV GRE are shown in FIG. 10.
# T1 sequence (P10608 whole entry, the tested form may be a part): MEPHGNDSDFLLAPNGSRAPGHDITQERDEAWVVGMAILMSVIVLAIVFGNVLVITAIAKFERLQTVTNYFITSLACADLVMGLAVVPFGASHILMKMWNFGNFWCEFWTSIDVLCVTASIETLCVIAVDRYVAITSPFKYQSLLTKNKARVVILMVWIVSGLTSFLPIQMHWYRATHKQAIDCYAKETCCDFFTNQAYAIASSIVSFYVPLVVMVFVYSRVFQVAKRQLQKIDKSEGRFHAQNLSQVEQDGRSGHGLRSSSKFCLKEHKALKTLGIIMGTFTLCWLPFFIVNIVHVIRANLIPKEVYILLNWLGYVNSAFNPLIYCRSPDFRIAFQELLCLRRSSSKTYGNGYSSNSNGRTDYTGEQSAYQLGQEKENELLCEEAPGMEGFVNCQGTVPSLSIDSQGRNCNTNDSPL
molecule,measurement,setting,value
"CC(C)(C)NCC(O)COc1cccc2[nH]c(C#N)c(I)c12 (stereo not shown) [[^125I]CYP, [^125I]cyanoiodopindolol]",binding site concentration,β2AR [1]; [125I]CYP saturation,60 fmol/mg protein
same,Kd,"β2AR [1]; read-out: [125I]CYP dissociation constant, 37° C., 2 hour, nonspecific binding 0.1 μM (−)-propranolol, representative Scatchard plot",0.01 nM
C[C@@H]1C[C@H]2[C@@H]3CCC4=CC(=O)C=C[C@]4(C)[C@@]3(F)[C@@H](O)C[C@]2(C)[C@@]1(O)C(=O)CO [dexamethasone],induction of luciferase activity,[2],approximately 1.5 fold
same,induction of luciferase activity,GRE-pT81LUC fusion genes; GRE5-pT81LUC,3.2 fold
same,induction of luciferase activity,GRE-pT81LUC fusion genes; MMTV-pT81LUC fusion gene (positive control),~4 fold
same,induction in luciferase activity,[3],~2 fold
CC(C)NCC(O)c1ccc(O)c(O)c1 (stereo not shown) [isoproterenol],Cyclic AMP production,β2AR [4],3.17±0.57 fmol/min/mg protein and 5.95±1.4 fmol/min/mg protein
CCC(NC(C)C)C(O)c1ccc(O)c2[nH]c(=O)ccc12 (stereo not shown) [procaterol],effect on mucociliary clearance,mucociliary clearance,no effect
CC(C)(C)NCC(O)c1cc(O)cc(O)c1 (stereo not shown) [terbutaline],effect on mucociliary clearance,mucociliary clearance,increases
MMTV GRE,activity (fold induction),[5],4
isobutylmethylxanthine [IBMX],Cyclic AMP accumulation,"β2AR [4]; 100 μM IBMX, 10 min at 37° C., control 0.27±0.08, statistically insignificant increase",0.40±0.04 fmol/min/mg protein
B1,binding result,[6],no binding
B2,activity,[7],3.2 fold induction
